Experimental data published in paper PMC8066102, “Metabolic Profiles of New Unsymmetrical Bisacridine Antitumor Agents in Electrochemical and Enzymatic Noncellular Systems and in Tumor Cells” (Pharmaceuticals, 2021).

Key:
UGT 1A6 = target: T1, UGT 1A6 (Homo sapiens, UniProt P19224); experiment: Glucuronidation with recombinant UGT1A6; assay type: in vitro ADME; parameters: key: −: the lack of UGT activity; +: the significant UGT activity; conditions: 0.05 mM compound, 1 mg/mL UGT, 5 mM UDPGA
T1 construct: His tag; purchased Corning, NY, USA (through DIAG-MED, Poland); host or cells: baculovirus-insect cells (Supersomes); Results say Sf9 cells
T1 sequence (P19224 27-532): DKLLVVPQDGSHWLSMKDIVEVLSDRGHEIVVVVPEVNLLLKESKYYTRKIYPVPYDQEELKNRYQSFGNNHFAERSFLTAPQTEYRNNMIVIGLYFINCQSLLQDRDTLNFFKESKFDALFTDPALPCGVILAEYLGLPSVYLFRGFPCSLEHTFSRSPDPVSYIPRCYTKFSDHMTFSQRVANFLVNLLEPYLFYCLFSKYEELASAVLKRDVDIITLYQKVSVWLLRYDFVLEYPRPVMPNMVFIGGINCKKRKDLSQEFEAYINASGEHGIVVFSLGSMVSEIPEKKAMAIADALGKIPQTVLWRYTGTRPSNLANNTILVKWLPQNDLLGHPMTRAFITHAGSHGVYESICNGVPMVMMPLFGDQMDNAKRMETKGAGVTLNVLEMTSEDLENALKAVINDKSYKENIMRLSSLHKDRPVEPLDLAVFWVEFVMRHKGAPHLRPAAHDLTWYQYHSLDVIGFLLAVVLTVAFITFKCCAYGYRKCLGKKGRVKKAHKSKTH
Procedure: Recombinant UGT isoform protein (1 mg/mL) was assayed for activity toward tested UAs as follows. The proteins were incubated in a buffer containing 0.1 M HEPES (pH 7.4), 8 mM MgCl2 and alamethicin (25 μg/mL) with either 0.05 mM substrate in total volume 70 µL (alamethicin was added to permeabilize the membrane). Substrates were also in buffer HEPES, pH 7.4. Reactions were started by the addition of UDPGA (5 mM) and were incubated for specified time at 37 °C. The reactions were stopped by the addition of 8.75 µL of 1 M HCl, followed by centrifugation at 13400 rpm for 10 min to pellet the denatured protein. The supernatant fractions were used for HPLC analysis. Control reactions omitting substrate were run with each assay. All incubations were performed in two repetitions.

UGT1A1 = target: T2, UGT1A1 (Homo sapiens, UniProt P22309); experiment: Modulation of UGT1A1 activity (SN-38 glucuronidation); assay type: in vitro ADME; parameters: purchased Corning, NY, USA (through DIAG-MED, Poland); host or cells: baculovirus-insect cells (Supersomes); conditions: SN-38 substrate
T2 sequence (P22309 26-533): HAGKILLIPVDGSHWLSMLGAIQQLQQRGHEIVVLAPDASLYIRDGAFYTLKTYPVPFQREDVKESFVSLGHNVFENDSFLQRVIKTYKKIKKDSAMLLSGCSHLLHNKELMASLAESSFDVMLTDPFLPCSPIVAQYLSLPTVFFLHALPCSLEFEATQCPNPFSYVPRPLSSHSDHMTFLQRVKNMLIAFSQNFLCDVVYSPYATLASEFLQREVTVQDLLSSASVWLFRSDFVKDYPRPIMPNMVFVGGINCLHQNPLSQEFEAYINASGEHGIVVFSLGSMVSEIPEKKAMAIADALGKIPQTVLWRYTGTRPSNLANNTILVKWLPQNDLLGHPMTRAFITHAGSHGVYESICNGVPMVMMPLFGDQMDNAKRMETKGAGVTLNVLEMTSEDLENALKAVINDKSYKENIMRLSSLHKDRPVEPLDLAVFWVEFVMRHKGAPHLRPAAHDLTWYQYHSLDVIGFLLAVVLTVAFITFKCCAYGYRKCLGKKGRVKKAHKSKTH
Procedure: Isoenzyme activity was studied by the rate measurement of β-hydroxylation of testosterone (specific substrate for P4503A4) and of glucuronidation of specific substrates, namely, SN-38 (UGT1A1), EPI (UGT2B7),) and TFK (UGT2B15). All substrate and drug solutions were prepared as 10 mM stock solutions in DMSO and were diluted in […] (pH 7.4). The mixture containing isoenzymes P4503A4/UGT (0.5 mg/mL), probe substrate (0.1 mM), cofactor 2 mM NADPH/5 mM UDPGA and the increasing concentrations of tested UA (0, 0.01, 0.02 and 0.05 mM) was incubated in the reaction buffer containing (i) for P4503A4 0.1 M HEPES, 88 mM MgCl2 and (ii) for UGT 0.1 M HEPES, 88 mM MgCl2, 25 μg/mL alamethicin at 37 °C for 30 min and were terminated by adding 8.75 µL of 0.1 M HCl. The samples were placed in ice for 10 min and centrifuged (10 min, 13,400 rpm). Supernatant fractions were analyzed by HPLC. For more accurate investigation of P4503A4 inhibition by C-2045 and C-2053 the β-hydroxylation rate was measured at various concentrations of testosterone: 0.02, 0.05, 0.1 and 0.2 mM. The inhibitor (UA) concentrations were 0, 0.001, 0.005 and 0.01 mM, whereas the incubation time 30 min and concentration of P4503A4 (0.5 mg/mL).

[1] = Differential pulse voltammetry on glassy carbon electrode; assay type: physicochemical; conditions: 0.5–20 µM, 0.02 M borate buffer with 0.15 M NaCl, pH 7.4, glassy carbon electrode, vs Ag/AgCl/3 M KCl
Procedure: To minimize the effects of electrode absorption processes on the current signals, differential pulse voltammetry (DPV) was applied in the positive potential range. […] This behavior was not observed in the case of C-2045, where only one anodic signal at a potential of approximately 0.52 V was observed over the entire studied concentration range (0.5–20 µM). The linear dependency, I = f (cUAs), confirmed that the obtained anodic current signals can be used for analytical purposes; however, the signal of C-2028 was linear over a narrower concentration range than in the case of C-2045.
Cyclic voltammetry (CV) and differential pulse voltammetry (DVP) were performed in 0.02 M borate buffer with 0.15 M NaCl, in water pH 7.4. with Autolab, model PGSTAT 12 potentiostat equipped with an ECD amplifier module (RC time settings: 0.0 s for scan rates > 10 mV/s and 0.1 s for scan rates < 10 mV/s). The voltammetric measurements were done in the three-electrode system consisting of the working electrode (glassy carbon electrode, GCE; ϕ = 3 mm; BAS Instruments), the reference electrode (Ag/AgCl/3 M KCl) and a platinum wire as the auxiliary electrode. Before each experiment the surface of working electrode was polished with 1 μm Al2O3 powder on a wet pad. After each polishing, to remove alumina completely from the electrode surface, the surface was rinsed with direct stream of ultrapure water. […]

Row | Glucuronidation potency UGT 1A6 (UGT 1A6) | activity decrease of UGT1A1 (UGT1A1; low concentrations of compound) [%] | inhibition at 30 min (UGT1A1; human, UGT1A1 isoenzyme preparation, pH 7.4, probe SN-38, higher concentrations of compound, read-out: inhibition rate of UGT1A1) [%] | DPV anodic signal potential [1] | SMILES
1 | − | 77 | 65 to 70 |  | CN(CCCNc1c2ccccc2nc2cccc([N+](=O)[O-])c12)CCCNc1ccc2ncn3c4ccccc4c(=O)c1c23 [C-2028]
2 | − |  |  |  | Cc1ccc([N+](=O)[O-])c2c(NCCCN(C)CCCNc3ccc4ncn5c6ccccc6c(=O)c3c45)c3ccccc3nc12 [C-2053]
3 |  |  |  | approximately 0.52 V | Cc1ccc([N+](=O)[O-])c2c(NCCCN(C)CCCNc3ccc4ncn5c6ccc(O)cc6c(=O)c3c45)c3ccccc3nc12 [C-2045]
